≈ marks a conversion by molar mass, not a printed value. Read-outs that look alike come from different tables or passages of the source.
Columns and labels:
in vitro = in vitro ADME; conditions: PAMPA; donor pH 6.5, acceptor pH 7.4, 5 h, 37°C; read-out: PAMPA permeability Mean Pe
Protocol: A parallel artificial membrane permeability assay was performed in a 96-well precoated PAMPA plate system (Corning Gentest # 353015). The compound solutions were prepared by diluting the stock solutions (10 mM) in phosphate-buffered saline (PBS) pH 6.5 at a final concentration of 10 μM and then added to the donor portion of the plate (300 μl/well), while PBS pH 7.4 (200 μl/well) was added to the acceptor portion, and the DMSO concentration was lower than 1%. The two portions of the plate were then coupled, and the system was incubated for 5 h at 37°C. Samples of the initial donor solution (T0) were collected and stored at -20°C. At the end of the incubation, samples were collected from the donor and acceptor plates and then added to plates containing quench solution (10% water and 90% methanol:acetonitrile (50:50) + 50 nM tolbutamide). The T0 samples were treated similarly. The final concentrations of compounds in the donor, acceptor and T0 wells were quantified by LC-MS/MS (liquid chromatography-tandem mass spectrometry) Prominence UFLC (Shimadzu Corporation, Kyoto, Japan) and interfaced with an LCMS-8045 triple quadrupole mass spectrometer (Shimadzu Corporation, Kyoto, Japan) with an electrospray ionization source (ESI). The chromatogram for analysis was obtained on a Supelco Ascentis express C18 column (3 cm x 2.1 mm, 5 μM). The mobile phases consisted of water + 0.1% formic acid (A) and acetonitrile + 0.1% formic acid (B). The mobile phase was eluted in binary gradient mode, and the gradient was as follows: 0 min, 95% A; 0.05 mins. 95% A; 0.3 mins: 2% A; 0.7 mins: 2% A; 0.8 mins: 95% A; 1.15 mins 95% A; and 2.0 mins 95% A. The run time was 2 minutes, the sample injection volume was 10 μL, and the flow rate was 0.7 mL/min. The results were used to calculate an effective permeability (Pe) value.

physchem = type: physicochemical; conditions: aqueous buffer, kinetic from dmso stock
Protocol: The plate was sealed and shaken for 24 hours (200 rpm, r.t.). The precipitates on the incubation plate were removed by centrifugation (15 min., 3000 rpm, r.t.). The supernatant fractions were quantified by LC-MS/MS (liquid chromatography-tandem mass spectrometry) Prominence UFLC (Shimadzu Corporation, Kyoto, Japan) and interface with an LCMS-8045 triple quadrupole mass spectrometer (Shimadzu Corporation, Kyoto, Japan) with an electrospray ionization source (ESI). From a 10 mM standard solution, an intermediate standard dilution of 0.5 mM in a 1:1 acetonitrile:water solution was prepared. Calibration curves were prepared for each cytochalasin by diluting the intermediate standard several times to reach the desired concentrations of 50, 40, 20, 2, and 1 μM. The resulting equation for the calibration curve (y = mx + b) was used to calculate the experimental concentration values for the cytochalasins. The chromatogram for analysis was obtained on a Supelco Ascentis express C18 column (3 cm x 2.1 mm, 5 μM). The mobile phases consisted of water + 0.05% formic acid (A) and acetonitrile + 0.05% formic acid (B). The mobile phase was eluted in binary gradient mode, and the gradient was as follows: 0 min, 98% A; 1.2 mins. 2% A; 2.0 mins: 2% A; and re-equilibration time: 0.6 min., 98% A. The run time was 2 minutes, the sample injection volume was 5 μL, and the flow rate was 0.6 mL/min.

[1] = system: intracellular T. cruzi Tulahuen LacZ amastigotes; test: microbe, parasite or virus in culture; type: cell-based, Trypanosoma cruzi; conditions: for IC50: Trypanosoma cruzi, intracellular amastigotes, Tulahuen LacZ, HFF-1 host cells, 120 h, read-out: T. cruzi IC50 (μM ± SD); for SI^1 (CC50 HFF-1/IC50 T. cruzi) / SI^3 (CC50 HepG2/IC50 T. cruzi): selectivity index
Protocol: The epimastigote forms of the T. cruzi Tulahuen strain, which expresses the E. coli β-galactosidase gene lacZ [11], were grown in liver infusion tryptone (LIT) supplemented with 10% FCS (Cultilab) and 1% pen/strep (Sigma–Aldrich) at 28°C. Metacyclogenesis from epimastigotes to trypomastigotes was induced by the incubation of the epimastigotes in Grace’s insect medium (Sigma-Aldrich, 28°C) every 5 days. After 5 days, the trypomastigote forms were used to infect the HFF-1 cells. The promastigote forms of L. infantum were maintained in Schneider’s insect medium (Sigma-Aldrich) supplemented with 10% FCS (Cultilab) and 1% pen/strep (Sigma-Aldrich) at 28°C and subcultured every 6 or 7 days.
In vitro assays against T. cruzi were performed as described previously. HFF-1 human fibroblasts were seeded at 4x10^3/well in 96-well tissue culture plates in DMEM (Cultilab) without phenol red and then incubated overnight (37°C, 5% CO2). Next, trypomastigotes were added at 4x10^4/well, and the plates were incubated (37°C, 5% CO2). After 24 h, 2-fold serial dilutions of the test compounds were added at concentrations ranging from 64 to 0.12 μM, and the plates were then incubated (37°C, 5% CO2). Each compound concentration was evaluated in duplicate. All the plates included BZ (64–0.12 μM) (Sigma-Aldrich) as a positive control and untreated wells (100% growth) as a negative control. After 120 h, chlorophenol red β-D-galactopyranoside (CPRG, Sigma-Aldrich) was added to each well. The absorbance was measured at 570 nm in an automated SpectraMax 384 microplate reader (Sunnyvale, CA, USA), and the data were analysed using GraphPad Prism version 8.0 (San Diego, CA, USA) for IC50 value calculation.
The analyses were performed using GraphPad Prism version 8.0 (GraphPad Software, San Diego, CA, USA). Both the IC50 and CC50 values were calculated by adjusting the sigmoid dose-response curves, and the selectivity index (SI) values were determined by CC50/IC50 [16]. Statistical analyses were performed using one-way ANOVA followed by Dunnett’s multiple comparison test.

T. cruzi = test: Screening of natural product collection against T. cruzi (cell infection assay); type: cell-based; conditions: Trypanosoma cruzi; compound concentration of 50 μM
Protocol: A screening of a natural product collection was performed by using cell assays for infection with Trypanosoma cruzi and Leishmania infantum. The collection includes 320 compounds from the metabolic classes terpenes, alkaloids, peptides and amides that were isolated by plant species or endophytic fungi. For further evaluation in this study, cytochalasins A-D (CAS numbers: CytA: 14110-64-6, CytB: 14930-96-2, CytC: 22144-76-9, CytD: 22144-77-0) were obtained from Sigma-Aldrich (St. Louis, MO, USA). The purity of these compounds was ≥97%. The stock solution of the compounds was prepared in 100% DMSO (dimethyl sulfoxide—Sigma-Aldrich).

[2] = PBS pH 2.0, 24 h, read-out: Kinetic Solubility pH 2.0 (LogS) (converted)
[3] = PBS pH 7.4, 24 h, read-out: Kinetic Solubility pH 7.4 (LogS) (converted)

| Structure (SMILES) | Papp (in vitro) [×10⁻⁶ cm/s] | solubility kinetic (physchem; [2]) [µM] | solubility kinetic (physchem; [3]) [µM] | IC50 [1] [µM] | SI^1 (CC50 HFF-1/IC50 T. cruzi) [1] | SI^3 (CC50 HepG2/IC50 T. cruzi) [1] | inhibition at 50 µM (T. cruzi) [%] |
| --- | --- | --- | --- | --- | --- | --- | --- |
| C=C1[C@@H](C)[C@H]2[C@H](Cc3ccccc3)NC(=O)[C@]23OC(=O)/C=C/C(=O)CCC[C@@H](C)C/C=C/[C@H]3[C@@H]1O [Cytochalasin A] | 27.1 ± 2.37 | 39.8 (≈ 19 µg/mL) | 69.2 (≈ 33 µg/mL) | 3.02 ± 2.16 | 8.96 | 6.99 | 99.7 |
| C=C1[C@@H](C)[C@H]2[C@H](Cc3ccccc3)NC(=O)[C@]23[C@H](OC(C)=O)/C=C/[C@@](C)(O)C(=O)[C@@H](C)C/C=C/[C@H]3[C@@H]1O [Cytochalasin D] | 8.74 ± 0.64 | 42.7 (≈ 21.7 µg/mL) | 46.8 (≈ 23.7 µg/mL) | 20.2 ± 3.27 | 4.78 | 6.11 | 69.5 |
| CC(=O)OC1C=CC(C)(O)C(=O)C(C)CC=CC2C(O)C(C)=C(C)C3C(Cc4ccccc4)NC(=O)C123 (stereo not shown) [Cytochalasin C] | 14.8 ± 3.28 | 17 (≈ 8.62 µg/mL) | 46.8 (≈ 23.7 µg/mL) | 10.2 ± 1.13 | 7.45 | 2.19 | 72.8 |
| C=C1[C@@H](C)[C@H]2[C@H](Cc3ccccc3)NC(=O)[C@]23OC(=O)/C=C/[C@H](O)CCC[C@@H](C)C/C=C/[C@H]3[C@@H]1O [Cytochalasin B] | 15.8 ± 0.31 | 77.6 (≈ 37.2 µg/mL) | 77.6 (≈ 37.2 µg/mL) | 16.9 ± 1.47 | 1.29 | 2.74 | 79.4 |

— article PMC9529094, “Identification of natural cytochalasins as leads for neglected tropical diseases drug discovery” (PLoS ONE, 2022)
